Like-named read-outs stand apart in the source and are kept apart here.
Molecular target: T1, human DP2 (Homo sapiens, UniProt Q9Y5Y4)
T1 construct: expressed in transfected cells; membranes prepared
T1 sequence (Q9Y5Y4 1-395): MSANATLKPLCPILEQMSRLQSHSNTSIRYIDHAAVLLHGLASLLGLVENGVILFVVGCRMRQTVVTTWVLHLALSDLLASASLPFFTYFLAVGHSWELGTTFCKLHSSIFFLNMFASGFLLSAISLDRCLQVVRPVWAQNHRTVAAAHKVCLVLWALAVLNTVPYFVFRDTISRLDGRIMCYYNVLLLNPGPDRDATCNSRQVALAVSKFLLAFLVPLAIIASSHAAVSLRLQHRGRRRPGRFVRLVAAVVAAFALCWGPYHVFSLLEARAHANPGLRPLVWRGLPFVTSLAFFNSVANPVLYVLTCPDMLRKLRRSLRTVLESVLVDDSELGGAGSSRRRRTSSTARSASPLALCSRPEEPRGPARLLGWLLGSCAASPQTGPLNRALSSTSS
Experiment: DP-2 binding inhibition assay (3H-PGD2, membranes of DP2-expressing K562 cells)
Procedure, shortened: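 Displacement of 3H-PGD2 was measured by filtration and scintillation counting after 60 min at room temperature, using membranes of DP2-transfected K562 cells in 0.1% BSA, 1% HSA or 4% HSA.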

[1] = 4% HSA, read-out: EC50 (nM) 4% HSA

EC50 [1] | Structure (SMILES) | also measured
144 nM | O=C(Nc1cccc(-c2ccc(Cl)cc2)n1)c1ccc(Oc2c(Cl)cc3c(c2C2CC2)OCCC3C(=O)O)cc1 (stereo not shown) [Example 108, Sodium 6-chloro-7-(4-(6-(4-chlorophenyl)pyridin-2-ylcarbamoyl)phenoxy)-8-cyclopropylchroman-4-carboxylate] | EC50 (0.1% BSA, read-out: EC50 (nM) 0.1% BSA): 8 nM
129 nM | O=C(Nc1cccc(-c2ccc(F)cc2)n1)c1ccc(Oc2cc3c(cc2Cl)C(C(=O)O)CCO3)cc1 (stereo not shown) [Example 109, 6-Chloro-7-(4-(6-(4-fluorophenyl)pyridin-2-ylcarbamoyl)phenoxy)chroman-4-carboxylic acid] | 
25.2 nM | O=C(Nc1cccc(-c2ccc(C(F)(F)F)cc2)n1)c1ccc(Oc2cc3c(cc2Cl)C(C(=O)O)CCO3)cc1 (stereo not shown) [Example 110, 6-Chloro-7-(4-(6-(4-(trifluoromethyl)phenyl)pyridin-2-ylcarbamoyl)phenoxy)chroman-4-carboxylic acid] | 
1460 nM | O=C(Nc1cccc(C2CC2)n1)c1ccc(Oc2cc3c(cc2Cl)C(C(=O)O)CCO3)cc1 (stereo not shown) [Example 111, 6-Chloro-7-(4-(6-cyclopropylpyridin-2-ylcarbamoyl)phenoxy)chroman-4-carboxylic acid] | 
46 nM | O=C(Nc1cccc(-c2cccc(C(F)(F)F)c2)n1)c1ccc(Oc2cc3c(cc2Cl)C(C(=O)O)CCO3)cc1 (stereo not shown) [Example 112, 6-Chloro-7-(4-(6-(3-(trifluoromethyl)phenyl)pyridin-2-ylcarbamoyl)phenoxy)chroman-4-carboxylic acid] | 
452 nM | O=C(Nc1cccc(-c2ccnc(C(F)(F)F)c2)n1)c1ccc(Oc2cc3c(cc2Cl)C(C(=O)O)CCO3)cc1 (stereo not shown) [Example 113, 6-Chloro-7-(4-(2′-(trifluoromethyl)-2,4′-bipyridin-6-ylcarbamoyl)phenoxy)chroman-4-carboxylic acid] | 
276 nM | CC(C)(C)c1cccc(NC(=O)c2ccc(Oc3cc4c(cc3Cl)C(C(=O)O)CCO4)cc2)n1 (stereo not shown) [Example 114, 7-(4-(6-tert-Butylpyridin-2-ylcarbamoyl)phenoxy)-6-chlorochroman-4-carboxylic acid] | 
342 nM | O=C(Nc1ccc(-c2ccc(Cl)cc2)cn1)c1ccc(Oc2cc3c(cc2Cl)C(C(=O)O)CCO3)cc1 (stereo not shown) [Example 115, 6-Chloro-7-(4-(5-(4-chlorophenyl)pyridin-2-ylcarbamoyl)phenoxy)chroman-4-carboxylic acid] | 
82.8 nM | O=C(Nc1ccc(-c2cccc(Cl)c2)cn1)c1ccc(Oc2cc3c(cc2Cl)C(C(=O)O)CCO3)cc1 (stereo not shown) [Example 116, 6-Chloro-7-(4-(5-(3-chlorophenyl)pyridin-2-ylcarbamoyl)phenoxy)chroman-4-carboxylic acid] | 
264 nM | O=C(Nc1ccc(-c2ccccc2Cl)cn1)c1ccc(Oc2cc3c(cc2Cl)C(C(=O)O)CCO3)cc1 (stereo not shown) [Example 117, 6-Chloro-7-(4-(5-(2-chlorophenyl)pyridin-2-ylcarbamoyl)phenoxy)chroman-4-carboxylic acid] | 
100 nM | O=C(Nc1ccc(-c2ccc(C(F)(F)F)cc2)cn1)c1ccc(Oc2cc3c(cc2Cl)C(C(=O)O)CCO3)cc1 (stereo not shown) [Example 118, 6-Chloro-7-(4-(5-(4-(trifluoromethyl)phenyl)pyridin-2-ylcarbamoyl)phenoxy)chroman-4-carboxylic acid] | 
422 nM | O=C(Nc1ccc(-c2cccc(C(F)(F)F)c2)cn1)c1ccc(Oc2cc3c(cc2Cl)C(C(=O)O)CCO3)cc1 (stereo not shown) [Example 119] | 
2730 nM | O=C(Nc1cc(-c2ccc(Cl)cc2)ccn1)c1ccc(Oc2cc3c(cc2Cl)C(C(=O)O)CCO3)cc1 (stereo not shown) [Example 120, 6-Chloro-7-(4-(4-(4-chlorophenyl)pyridin-2-ylcarbamoyl)phenoxy)chroman-4-carboxylic acid] | 
1890 nM | O=C(Nc1cc(-c2cccc(Cl)c2)ccn1)c1ccc(Oc2cc3c(cc2Cl)C(C(=O)O)CCO3)cc1 (stereo not shown) [Example 121, 6-Chloro-7-(4-(4-(3-chlorophenyl)pyridin-2-ylcarbamoyl)phenoxy)chroman-4-carboxylic acid] | 
2580 nM | O=C(Nc1cc(-c2ccccc2Cl)ccn1)c1ccc(Oc2cc3c(cc2Cl)C(C(=O)O)CCO3)cc1 (stereo not shown) [Example 122, 6-Chloro-7-(4-(4-(2-chlorophenyl)pyridin-2-ylcarbamoyl)phenoxy)chroman-4-carboxylic acid] | 
294 nM | O=C(Nc1ccc(-c2ccc(Cl)cc2)nc1)c1ccc(Oc2cc3c(cc2Cl)C(C(=O)O)CCO3)cc1 (stereo not shown) [Example 123, 6-Chloro-7-(4-(6-(4-chlorophenyl)pyridin-3-ylcarbamoyl)phenoxy)chroman-4-carboxylic acid] | 
133 nM | O=C(Nc1ccc(-c2cccc(Cl)c2)nc1)c1ccc(Oc2cc3c(cc2Cl)C(C(=O)O)CCO3)cc1 (stereo not shown) [Example 124, 6-Chloro-7-(4-(6-(3-chlorophenyl)pyridin-3-ylcarbamoyl)phenoxy)chroman-4-carboxylic acid] | 

EC50 [1] | Structure (SMILES) | also measured
627 nM | O=C(Nc1ccc(-c2ccccc2Cl)nc1)c1ccc(Oc2cc3c(cc2Cl)C(C(=O)O)CCO3)cc1 (stereo not shown) [Example 125, 6-Chloro-7-(4-(6-(2-chlorophenyl)pyridin-3-ylcarbamoyl)phenoxy)chroman-4-carboxylic acid] | 
469 nM | O=C(Nc1cncc(-c2ccc(Cl)cc2)c1)c1ccc(Oc2cc3c(cc2Cl)C(C(=O)O)CCO3)cc1 (stereo not shown) [Example 126, 6-Chloro-7-(4-(5-(4-chlorophenyl)pyridin-3-ylcarbamoyl)phenoxy)chroman-4-carboxylic acid] | 
690 nM | O=C(Nc1cncc(-c2cccc(Cl)c2)c1)c1ccc(Oc2cc3c(cc2Cl)C(C(=O)O)CCO3)cc1 (stereo not shown) [Example 127, 6-Chloro-7-(4-(5-(3-chlorophenyl)pyridin-3-ylcarbamoyl)phenoxy)chroman-4-carboxylic acid] | 
596 nM | O=C(Nc1ccnc(-c2ccc(Cl)cc2)c1)c1ccc(Oc2cc3c(cc2Cl)C(C(=O)O)CCO3)cc1 (stereo not shown) [Example 128, 6-Chloro-7-(4-(2-(4-chlorophenyl)pyridin-4-ylcarbamoyl)phenoxy)chroman-4-carboxylic acid] | 
437 nM | O=C(Nc1ccnc(-c2cccc(Cl)c2)c1)c1ccc(Oc2cc3c(cc2Cl)C(C(=O)O)CCO3)cc1 (stereo not shown) [Example 129, 6-Chloro-7-(4-(2-(3-chlorophenyl)pyridin-4-ylcarbamoyl)phenoxy)chroman-4-carboxylic acid] | 
139 nM | O=C(Nc1nccc(-c2ccc(C(F)(F)F)cc2)n1)c1ccc(Oc2cc3c(cc2Cl)C(C(=O)O)CCO3)cc1 (stereo not shown) [Example 130, 6-Chloro-7-(4-(4-(4-(trifluoromethyl)phenyl)pyrimidin-2-ylcarbamoyl)phenoxy)chroman-4-carboxylic acid] | 
128 nM | O=C(Nc1nccc(-c2cccc(C(F)(F)F)c2)n1)c1ccc(Oc2cc3c(cc2Cl)C(C(=O)O)CCO3)cc1 (stereo not shown) [Example 131, 6-Chloro-7-(4-(4-(3-(trifluoromethyl)phenyl)pyrimidin-2-ylcarbamoyl)phenoxy)chroman-4-carboxylic acid] | 
128 nM | O=C(Nc1nccc(-c2ccc(Cl)cc2)n1)c1ccc(Oc2cc3c(cc2Cl)C(C(=O)O)CCO3)cc1 (stereo not shown) [Example 132, 6-Chloro-7-(4-(4-(4-chlorophenyl)pyrimidin-2-ylcarbamoyl)phenoxy)chroman-4-carboxylic acid] | 
261 nM | O=C(Nc1nccc(-c2cccc(Cl)c2)n1)c1ccc(Oc2cc3c(cc2Cl)C(C(=O)O)CCO3)cc1 (stereo not shown) [Example 133, 6-Chloro-7-(4-(4-(3-chlorophenyl)pyrimidin-2-ylcarbamoyl)phenoxy)chroman-4-carboxylic acid] | 
426 nM | O=C(Nc1ncc(-c2cccc(Cl)c2)cn1)c1ccc(Oc2cc3c(cc2Cl)C(C(=O)O)CCO3)cc1 (stereo not shown) [Example 134, 6-Chloro-7-(4-(5-(3-chlorophenyl)pyrimidin-2-ylcarbamoyl)phenoxy)chroman-4-carboxylic acid] | 
313 nM | O=C(Nc1cnc(-c2cccc(Cl)c2)nc1)c1ccc(Oc2cc3c(cc2Cl)C(C(=O)O)CCO3)cc1 (stereo not shown) [Example 135, 6-Chloro-7-(4-(2-(3-chlorophenyl)pyrimidin-5-ylcarbamoyl)phenoxy)chroman-4-carboxylic acid] | 
442 nM | O=C(Nc1cncc(-c2ccc(Cl)cc2)n1)c1ccc(Oc2c(Cl)cc3c(c2Cl)OCCC3C(=O)O)cc1 (stereo not shown) [Example 136, 6,8-Dichloro-7-(4-(6-(4-chlorophenyl)pyrazin-2-ylcarbamoyl)phenoxy)chroman-4-carboxylic acid] | 
80.9 nM | O=C(Nc1ccnc(-c2ccc(Cl)cc2)n1)c1ccc(Oc2c(Cl)cc3c(c2Cl)OCCC3C(=O)O)cc1 (stereo not shown) [Example 137, 6,8-Dichloro-7-(4-(2-(4-chlorophenyl)pyrimidin-4-ylcarbamoyl)phenoxy)chroman-4-carboxylic acid] | 
687 nM | O=C(NCCc1ncc(Cl)cc1Cl)c1ccc(Oc2cc3c(cc2Cl)C(C(=O)O)CCO3)cc1 (stereo not shown) [Example 138, Sodium 6-chloro-7-(4-(2-(3,5-dichloropyridin-2-yl)ethylcarbamoyl)phenoxy)chroman-4-carboxylate] | 
40 nM | CN(C)c1nc(C(F)(F)F)ccc1CCNC(=O)c1ccc(Oc2cc3c(cc2Cl)C(C(=O)O)CCO3)cc1 (stereo not shown) [Example 139, Sodium 6-chloro-7-(4-(2-(2-(dimethylamino)-6-(trifluoromethyl)pyridin-3-yl)ethylcarbamoyl)phenoxy)chroman-4-carboxylate] | 
 | COc1ccc(CCNC(=O)c2ccc(Oc3cc4c(cc3Cl)C(C(=O)O)CCO4)cc2)c(OC)n1 (stereo not shown) [Example 140, Sodium 6-chloro-7-(4-(2-(2,6-dimethoxypyridin-3-yl)ethylcarbamoyl)phenoxy)chroman-4-carboxylate] | EC50 (EC50 (nM) 4% HSA, 4% HSA): 107 nM

— US8785445B2 (Array BioPharma Inc., priority 2008, dated 2014)
